Source: paper PMC8804135 (Neurotherapeutics, 2021)
Numbered stars: 1 amine (or outer) side, 2 acyl side, 3 side chain; on linkers, the order of the positions; unused ones are H or OH. Bridge positions count the residues as written; N and C are the ends. Square brackets hold non-standard residues; d marks the D form. Peptide text beside a SMILES is read from it. dAbu(3S-yl) = C[C@@H]([C@@H](N[*:1])C(=O)[*:2])[*:3]; pGlu = O=C1CC[C@@H](C(=O)O)N1

Tests used:
[1] = In vitro stability in brain plasma; assay type: in vitro ADME, rat; conditions: Sprague-Dawley, rat, other tissue homogenate, pH 7.4
Description: The method to study the stability of peptides in brain plasma is described in the Supplementary material. […]
receptor-2-selective agonist reduces acute food intake
Anneke Kuipers1, Márta Balasko2, Erika Pétervári2, Andreas Koller3,4, Susanne M.
Brunner3,4, Gert N. Moll1,5, Barbara Kofler 3*
In vitro stability in brain plasma
Sprague dawley rat brain lyophilized powder was purchased from MyBioSource (San Diego, USA). One gram brain powder was reconstituted in 10 ml PBS, 0.5 ml 2 M Tris (pH=8), 100 µl Triton X -100 and 10 mg SDS. The solution was centrifuged and the supernatant was collected, aliquoted and stored at -20 °C until usage. To assess the stability, 10 µM GAL-(1-15) and 10 µM M89b were incubated in 1% brain plasma buffered with 200 mM phosphate buffer (pH 7.4) at 37°C for up to 6 hours. At various time points […]
20 µl 100% ACN. Samples were centrifuged and kept on ice. Full-length peptides were quantified by using a C12 column (C12 RP 250 x 4.60 mm column, Phenomenex) on a JASCO HPLC system and applying a gradient of 20 -90% ACN in 0.1% TFA for 30 minutes.
Peptides were detected at 280 nm. A280 areas in chromatograms of the corresponding GAL-(1-15) and M89b full-length peptide peaks were used to determine the amount of peptide left after incubation with cerebrospinal fluid at the different time points. Peptide peaks were determined using JASCO-Borwin Chromatography software (v1.50).

GAL1R [2] = target: T1, GAL1R (Homo sapiens, UniProt P47211); assay: PathHunter eXpress β-arrestin recruitment assay, GAL1R; assay type: cell-based; design: expressed in transfected cells; conditions: Table 3; CHO-K1 cells co-expressing GAL1R and β-arrestin 2; 10 µM to 5 nM; (average) ratio, (n) in cell = number of assays; NA = ratio above 1000
T1 sequence (P47211 1-349): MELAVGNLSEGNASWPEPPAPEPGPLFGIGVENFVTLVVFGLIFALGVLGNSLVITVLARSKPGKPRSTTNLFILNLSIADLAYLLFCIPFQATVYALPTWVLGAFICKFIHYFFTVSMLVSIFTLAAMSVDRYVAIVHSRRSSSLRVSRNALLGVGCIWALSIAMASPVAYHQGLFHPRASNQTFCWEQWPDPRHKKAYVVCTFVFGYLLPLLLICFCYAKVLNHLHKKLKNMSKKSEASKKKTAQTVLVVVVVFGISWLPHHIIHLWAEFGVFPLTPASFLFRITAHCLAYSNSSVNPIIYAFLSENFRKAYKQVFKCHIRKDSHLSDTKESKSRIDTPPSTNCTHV
Description: To evaluate the ability of lanthipeptides to recruit ß-arrestins via GAL1R or via GAL2R, we used the PathHunter® eXpress GAL1R, CHO-K1, β-arrestin GPCR Assay and the PathHunter® eXpress GAL2R, CHO-K1, β-arrestin, GPCR Assay from Eurofins-DiscoverX. The assays were performed according to the manufacturer’s instructions. Briefly, for one assay, CHO-K1 cells co-expressing GAL1R or GAL2R and β-arrestin (isoform 2) were diluted in AssayComplete™ Cell Plating Reagent, and 100 µl was seeded into each well of a 96-well plate. The plate was incubated at 37 °C, 5% CO2 in a humidified incubator. A serial 3 × dilution of the lanthipeptides in water was made (10 µM to 5 nM). After 48 h of incubation, 10 µl of the serial dilutions was applied to the cells in duplicate. The agonists were incubated for 90 min at 37 °C. Next, 55 µL of Working Detection Solution was added, and after 1 h of incubation at room temperature in the dark, the chemiluminescent signal was read with a Synergy HT Biotek reader.

GAL1R [3] = target: T1, GAL1R; assay: Label-free dynamic mass redistribution assay, SY5Y-R1 cells; assay type: cell-based; design: expressed in transfected cells; conditions: GAL1R-expressing SH-SY5Y cells; 1.6 nM to 5 µM
Description: SH-SY5Y cells stably expressing low levels of either human GAL1R (SY5Y-R1) or GAL2R (SY5Y-R2) and HEK293 cells expressing human GAL3R (HEK-R3) were seeded in EnSpire LFC-[…] well plates (Perkin Elmer) at a concentration of 12,000 cells per well and cultured overnight at 37 °C and 5% CO2. The medium was aspired, and the cells were washed four times with Hank’s balanced salt solution (HBSS) (+ calcium, + magnesium) supplemented with HEPES (20 mM), and the final volume was adjusted to 30 µl per well. The plate was allowed to equilibrate to assay temperature for 1 h in the EnSpire multimode reader (Perkin Elmer). Galanin-(1–30) (GL Biochem) was dissolved and diluted in water. […] A baseline read was first generated by taking 4 measurements before ligands were added. The plate was measured between 30 and 70 repeats, and each treatment was performed in triplicate. […] EC50 values were calculated using Prism 8.2.0 (GraphPad Software Inc.). The values are provided as means of all independent experiments.

- remaining at 6 h, 10 µM [1]: ~85%
- Stimulation of GAL1R, DMR in SY5YR1 cells (GAL1R [3]): stimulate GAL2R only, not GAL1R
SMILES: CC(C)C[C@H](NC(=O)[C@H](CC(C)C)NC(=O)[C@H](Cc1ccc(O)cc1)NC(=O)CNC(=O)[C@H](C)NC(=O)[C@H](C)NC(=O)[C@H](CC(N)=O)NC(=O)[C@H](CC(C)C)NC(=O)[C@H](CC(N)=O)NC(=O)[C@H](Cc1c[nH]c2ccccc12)NC(=O)[C@@H]1CCC(=O)N1)C(=O)N[C@@H](C)C(=O)N[C@H]1C(=O)N[C@@H](Cc2c[nH]cn2)C(=O)N[C@@H](C)C(=O)N[C@H](C(=O)NCC(=O)O)CS[C@H]1C [Variant M89b, G1pE-T3N-S6A-G12A-methyllanthionine[13–16]-galanin-(1–17)] ([pGlu]WNLNAAGYLLA[dAbu(3S-yl)]HACG-OH; thioether 13-16; C-terminus assumed)
- EC50 ratios to Gal-(1-15), GAL1R ß-Arrestin (GAL1R [2]): NA (3) (NA is not active; ratios above 1000 were considered to be not active)
